One may read the EC50 as the midpoint of the concentration-response curve.

For one experiment, the target named is T1, THR beta-LBD (Homo sapiens, UniProt P10828).
T1 construct: THR beta-LBD (the final concentration is 0.5 nM) was added to the 384-well assay plate; purchased Invitrogen PV4686
T1 sequence (P10828 217-461 limits assumed): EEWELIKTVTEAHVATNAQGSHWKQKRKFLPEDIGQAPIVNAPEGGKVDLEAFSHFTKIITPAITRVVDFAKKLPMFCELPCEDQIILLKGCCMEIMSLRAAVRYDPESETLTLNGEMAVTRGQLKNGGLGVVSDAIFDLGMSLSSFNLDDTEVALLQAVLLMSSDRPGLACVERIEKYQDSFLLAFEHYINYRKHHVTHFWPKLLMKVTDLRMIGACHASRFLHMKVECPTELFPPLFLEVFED
Nature of the experiment: THR-β Coactivator Peptide Recruitment Assay (LanthaScreen TR-FRET). To be noted: TR-FRET coactivator recruitment, THR beta-LBD 0.5 nM; for EC50: read-out: THRβ EC50. Type of experiment: biochemical. The procedure, abridged: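 GST-tagged THR beta-LBD (0.5 nM) with test compound recruits fluorescein-SRC2-2 coactivator peptide (0.1 nM), detected with Tb-anti-GST antibody (2 nM).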
(In general: In TR-FRET formats the signal depends on donor and acceptor labels being close together.)

In another experiment the target is T2, THR alpha-LBD (Homo sapiens, UniProt P10827).
T2 construct: except that THR alpha-LBD of a final concentration 0.25 nM was used; purchased Invitrogen PV4687
T2 sequence (P10827 163-410 isoform P10827-2 limits assumed, other chains not shown): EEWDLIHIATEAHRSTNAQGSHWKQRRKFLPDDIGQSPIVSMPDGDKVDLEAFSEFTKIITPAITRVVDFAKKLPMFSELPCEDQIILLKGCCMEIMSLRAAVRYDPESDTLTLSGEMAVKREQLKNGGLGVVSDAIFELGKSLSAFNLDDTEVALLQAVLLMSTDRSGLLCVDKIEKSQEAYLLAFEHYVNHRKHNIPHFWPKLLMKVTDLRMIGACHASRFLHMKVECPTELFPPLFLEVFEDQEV
Briefly: THR-α Coactivator Peptide Recruitment Assay (LanthaScreen TR-FRET). Type of experiment: biochemical. Conditions: TR-FRET coactivator recruitment, THR alpha-LBD 0.25 nM; for EC50: read-out: THRα EC50. The procedure, abridged: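 TR-FRET coactivator recruitment with THR alpha-LBD at 0.25 nM final, Fluorescein-SRC2-2 peptide 0.1 nM and Tb-labeled anti-GST antibody 2 nM; 2 h incubation at room temperature. 520/495 nm emission ratio fitted to a four-parameter sigmoidal curve to give EC50.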

`C[C@H](CO)NS(=O)(=O)c1cc(Oc2c(Cl)cc(-n3nc(C(F)F)c(=O)[nH]c3=O)cc2Cl)ccc1O` [Compound 45, (R)-5-(2,6-dichloro-4-(6-(difluoromethyl)-3,5-dioxo-4,5-dihydro-1,2,4-triazin-2(3H)-yl)phenoxy)-2-hydroxy-N-(1-hydroxypropan-2-yl)benzenesulfonamide]: on THR beta-LBD, the “THRβ Emax” value is “B (75~90)” and the EC50 is < 0.002 µM. At THR alpha-LBD, the “THRα Emax” value was “A (85~110)” and the EC50 is 0.002 to 0.2 µM.
On to `O=C(NCC1(NS(=O)(=O)c2cc(Oc3c(Cl)cc(-n4nc(C(F)F)c(=O)[nH]c4=O)cc3Cl)ncc2O)CC1)C1CC1` [Compound 101], for which, on THR beta-LBD, the “THRβ Emax” value is recorded as “B (75~90)” and the EC50 lay in the range of 0.002 to 0.02 µM. At THR alpha-LBD, the “THRα Emax” value is reported as “B (40~85)” and the EC50 lay within 0.2 to 1 µM.
Take `O=C(NC1CC1)C1(NS(=O)(=O)c2cc(Oc3c(Cl)cc(-n4nc(C(F)F)c(=O)[nH]c4=O)cc3Cl)ccc2O)CCC1` [Compound 92, N-cyclopropyl-1-((5-(2,6-dichloro-4-(6-(difluoromethyl)-3,5-dioxo-4,5-dihydro-1,2,4-triazin-2(3H)-yl)phenoxy)-2-hydroxyphenyl)sulfonamido)cyclobutane-1-carboxamide]: at THR beta-LBD, the “THRβ Emax” value is given as “B (75~90)” and the EC50 is 0.002 to 0.02 µM. Also, at THR alpha-LBD, the “THRα Emax” value was “B (40~85)” and the EC50 fell in the range of 0.2 to 1 µM.
As to `O=C(NC1CCC1)c1cc(Oc2c(Cl)cc(-n3nc(C(F)F)c(=O)[nH]c3=O)cc2Cl)ccc1O` [Compound 1, N-cyclobutyl-5-[2,6-dichloro-4-[6-(difluoromethyl)-3,5-dioxo-1,2,4-triazin-2-yl]phenoxy]-2-hydroxy-benzamide], on THR beta-LBD, the “THRβ Emax” value is “A (90~110)” and the EC50 lay within 0.002 to 0.02 µM. Also, on THR alpha-LBD, the “THRα Emax” value is listed as “B (40~85)” and the EC50 fell in the range of 0.002 to 0.2 µM.
On the same counts, the results for `O=C(N1CCCC1)C1(NS(=O)(=O)c2cc(Oc3c(Cl)cc(-n4nc(C(F)F)c(=O)[nH]c4=O)cc3Cl)ccc2O)CC1` [Compound 91, 5-(2,6-dichloro-4-(6-(difluoromethyl)-3,5-dioxo-4,5-dihydro-1,2,4-triazin-2(3H)-yl)phenoxy)-2-hydroxy-N-(1-(pyrrolidine-1-carbonyl)cyclopropyl)benzenesulfonamide] are “A (90~110)”, 0.002 to 0.02 µM, “B (40~85)” and 0.2 to 1 µM.
Regarding `O=c1[nH]c(=O)n(-c2cc(Cl)c(Oc3ccc(O)c(S(=O)(=O)N4CCC(F)(F)CC4)c3)c(Cl)c2)nc1C(F)(F)F` [Compound 21, 2-(3,5-dichloro-4-(3-((4,4-difluoropiperidin-1-yl)sulfonyl)-4-hydroxyphenoxy)phenyl)-6-(trifluoromethyl)-1,2,4-triazine-3,5(2H,4H)-dione], on THR beta-LBD, the “THRβ Emax” value is given as “A (90~110)” and the EC50 fell in the range of 0.002 to 0.02 µM. For the same compound, on THR alpha-LBD, the “THRα Emax” value is on record as “B (40~85)” and the EC50 was 0.002 to 0.2 µM.
In the same order, the values of `O=C(C1CC1)N1CCN(S(=O)(=O)c2cc(Oc3c(Cl)cc(-n4nc(C(F)F)c(=O)[nH]c4=O)cc3Cl)ccc2O)CC1` [Compound 32, 2-(3,5-dichloro-4-(3-((4-(cyclopropanecarbonyl)piperazin-1-yl)sulfonyl)-4-hydroxyphenoxy)phenyl)-6-(difluoromethyl)-1,2,4-triazine-3,5(2H,4H)-dione] are “C (<75)”, 0.002 to 0.02 µM, “C (<40)” and 0.002 to 0.2 µM.
In the case of `O=C(NCC1(NS(=O)(=O)c2cc(Oc3c(Cl)cc(-n4nc(C(F)F)c(=O)[nH]c4=O)cc3Cl)ccc2O)CC1)C1CC1` [Compound 84, N-[[1-[[5-[2,6-dichloro-4-[6-(difluoromethyl)-3,5-dioxo-1,2,4-triazin-2-yl]phenoxy]-2-hydroxy-phenyl]sulfonylamino]cyclopropyl]methyl]cyclopropane carboxamide], on THR beta-LBD, the “THRβ Emax” value is “A (90~110)” and the concentration giving a half-maximal response (EC50) was < 0.002 µM. In addition, on THR alpha-LBD, the “THRα Emax” value is on record as “A (85~110)” and the EC50 lay in the range of 0.002 to 0.2 µM.
As for `Cc1nn(-c2cc(Cl)c(Oc3cc(S(=O)(=O)N[C@H]4C[C@@H](O)C4)c(O)cn3)c(Cl)c2)c(=O)[nH]c1=O` [Compound 162, 2-(2,6-dichloro-4-(6-methyl-3,5-dioxo-4,5-dihydro-1,2,4-triazin-2(3H)-yl)phenoxy)-5-hydroxy-N-((1s,3s)-3-hydroxycyclobutyl)pyridine-4-sulfonamide], on THR beta-LBD, the “THRβ Emax” value is “B (75~90)” and the EC50 was > 0.1 µM. Moreover, at THR alpha-LBD, the “THRα Emax” value is reported as “C (<40)” and the EC50 is > 1 µM.
With `Cc1cc(-n2nc(C(F)F)c(=O)[nH]c2=O)cc(C)c1Oc1cc(S(=O)(=O)N[C@H]2C[C@H](O)C2)c(O)cn1` [Compound 166, 2-[4-[6-(difluoromethyl)-3,5-dioxo-1,2,4-triazin-2-yl]-2,6-dimethyl-phenoxy]-5-hydroxy-N-(3-hydroxycyclobutyl)pyridine-4-sulfonamide], at THR beta-LBD, the “THRβ Emax” value is listed as “B (75~90)” and the EC50 was > 0.1 µM. Also, at THR alpha-LBD, the “THRα Emax” value was “B (40~85)” and the EC50 was > 1 µM.
Consider `CO[C@H]1C[C@H](NS(=O)(=O)c2cc(Oc3c(Cl)cc(-n4nc(C(F)F)c(=O)[nH]c4=O)cc3Cl)ncc2O)C1` [Compound 139, 2-(2,6-dichloro-4-(6-(difluoromethyl)-3,5-dioxo-4,5-dihydro-1,2,4-triazin-2(3H)-yl)phenoxy)-5-hydroxy-N-((1r,3r)-3-methoxycyclobutyl)pyridine-4-sulfonamide], for which, at THR beta-LBD, the “THRβ Emax” value is on record as “B (75~90)” and the EC50 was in the range of 0.002 to 0.02 µM. For the same compound, at THR alpha-LBD, the “THRα Emax” value is on record as “B (40~85)” and the 50% effective concentration (EC50) is 0.2 to 1 µM.
As for `O=C(NC1CCC1)C1(NS(=O)(=O)c2cc(Oc3c(Cl)cc(-n4nc(C(F)F)c(=O)[nH]c4=O)cc3Cl)ncc2O)CC1` [Compound 115, N-cyclobutyl-1-[[2-[2,6-dichloro-4-[6-(difluoromethyl)-3,5-dioxo-1,2,4-triazin-2-yl]phenoxy]-5-hydroxy-4-pyridyl]sulfonylamino]cyclopropanecarboxamide], on THR beta-LBD, the “THRβ Emax” value is given as “C (<75)” and the EC50 lay within 0.002 to 0.02 µM. Further, on THR alpha-LBD, the “THRα Emax” value is on record as “B (40~85)” and the EC50 is > 1 µM.
Consider `O=c1[nH]c(=O)n(-c2cc(Cl)c(Oc3ccc(O)c(S(=O)(=O)NC[C@H]4C[C@H](O)C4)c3)c(Cl)c2)nc1C(F)F` [Compound 43, 5-(2,6-dichloro-4-(6-(difluoromethyl)-3,5-dioxo-4,5-dihydro-1,2,4-triazin-2(3H)-yl)phenoxy)-2-hydroxy-N-(((1r,3r)-3-hydroxycyclobutyl)methyl)benzenesulfonamide], for which, on THR beta-LBD, the “THRβ Emax” value is listed as “A (90~110)” and the EC50 was in the range of 0.002 to 0.02 µM. In addition, on THR alpha-LBD, the “THRα Emax” value is recorded as “A (85~110)” and the EC50 was in the range of 0.002 to 0.2 µM.
Take `CO[C@H]1C[C@@H](NS(=O)(=O)c2cc(Oc3c(Cl)cc(-n4nc(C(F)F)c(=O)[nH]c4=O)cc3Cl)ncc2O)C1` [Compound 140, 2-(2,6-dichloro-4-(6-(difluoromethyl)-3,5-dioxo-4,5-dihydro-1,2,4-triazin-2(3H)-yl)phenoxy)-5-hydroxy-N-((1s,3s)-3-methoxycyclobutyl)pyridine-4-sulfonamide]: on THR beta-LBD, the “THRβ Emax” value was “B (75~90)” and the EC50 was 0.02 to 0.1 µM. In addition, on THR alpha-LBD, the “THRα Emax” value is “B (40~85)” and the EC50 fell in the range of 0.2 to 1 µM.
For the compound `O=C(N[C@H]1CCOC1)c1cc(Oc2c(Cl)cc(-n3nc(C(F)F)c(=O)[nH]c3=O)cc2Cl)ccc1O` [Compound 98, (S)-5-(2,6-dichloro-4-(6-(difluoromethyl)-3,5-dioxo-4,5-dihydro-1,2,4-triazin-2 (3H)-yl)phenoxy)-2-hydroxy-N-(tetrahydrofuran-3-yl) benzamide], on THR beta-LBD, the “THRβ Emax” value is reported as “B (75~90)” and the EC50 fell in the range of 0.002 to 0.02 µM. Further, on THR alpha-LBD, the “THRα Emax” value is “B (40~85)” and the EC50 was 0.002 to 0.2 µM.
In the same order, the values of `CS(=O)(=O)Cc1cc(Oc2c(Cl)cc(-n3nc(C(F)F)c(=O)[nH]c3=O)cc2Cl)ncc1O` [Compound 154, 2-[3,5-dichloro-4-[[5-hydroxy-4-(methylsulfonylmethyl)-2-pyridyl]oxy]phenyl]-6-(difluoromethyl)-1,2,4-triazine-3,5-dione] are “B (75~90)”, 0.002 to 0.02 µM, “B (40~85)” and 0.2 to 1 µM.
In the case of `CN1C[C@@H](NS(=O)(=O)c2cc(Oc3c(Cl)cc(-n4nc(C(F)F)c(=O)[nH]c4=O)cc3Cl)ccc2O)CC1=O` (single isomer, unassigned) [Compound 34], on THR beta-LBD, the “THRβ Emax” value is given as “C (<75)” and the EC50 fell in the range of 0.02 to 0.1 µM. In addition, at THR alpha-LBD, the “THRα Emax” value is “B (40~85)” and the EC50 was 0.2 to 1 µM.

The record behind these values is patent US12291518B2, “Thyroid hormone receptor agonists and use thereof” (Eccogene Inc., priority 2020, dated 2025).
